We go through four compounds from ChEMBL document CHEMBL1123699, “Selective cytotoxicity of a system L specific amino acid nitrogen mustard” (J Med Chem, 1987).

The subject of data set [1] is L1210. Nature of the data set: Inhibitory activity against leucine-preferring transport system (system L) was determined in murine leukemia L1210 cell lines. In kind it is functional, cell-based, Mus musculus.
The test system of data set [2] is L1210. The data set is described as follows: Lethal dose was determined for […] activity against murine leukemia cells (L1210). The data set is classed as toxicity, cell-based. The note with it: mouse.
The test system of the next data set is CFU-C. The data set is described as follows: Lethal dose was determined for […] activity against […]. The data set is classed as toxicity, cell-based. Conditions: mouse.
For data set [3], the system named is L1210. Nature of the data set: Inhibitory activity against murine leukemia cells (L1210) was determined. In kind it is functional, cell-based, Mus musculus.
A short description of data set [4]: Therapeutic index is the ratio of LD90 of CFU-C to LD90 of L1210 cell lines. In kind it is cell-based. The note with it: mouse, CFU-C and L1210 cells.
For data set [5] the following is noted: rat.

Regarding `NC1(C(=O)O)CCc2ccccc2C1` (stereo not given), the Ki (as a rule, the dissociation constant of the complex between target and ligand, obtained from inhibition or displacement) with L1210 [1] is 5 µM.
For the compound `N[C@@H](Cc1ccc(N(CCCl)CCCl)cc1)C(=O)O` [MELPHALAN], the LD90 with L1210 [2] stood at 35 µM; with CFU-C, 14 µM. In the data set on L1210 [3], this compound displayed a Ki of 112 µM.
In the case of `NC1(C(=O)O)CCc2c(cccc2N(CCCl)CCCl)C1` (stereo not given), the affinity in the data set with L1210 [1], expressed as Ki, was 15.2 µM. This counts as double-digit micromolar.
Regarding `NC1(C(=O)O)CCc2ccc(N(CCCl)CCCl)cc2C1` (stereo not given), the values for the LD90 in the data set with L1210 [2] and in the data set with CFU-C were 23.8 µM and 26.5 µM, respectively. The selectivity ratio in data set [4] was 0.9. In data set [5], the half-life (commonly the time in which the quantity being followed falls by half) was determined as 40 min. Besides, in the data set with L1210 [3], the affinity corresponds to a Ki of 0.22 µM.
